Test systems include A549 NSCLC; HL-60(TB) leukemia; SF-295 CNS; SK-MEL-5 melanoma; SN12C renal; COLO 205 colon; KM12 colon; MDA-MB-231 breast; MDA-MB-435; MDA-N.
Experiment in all cases: NCI anticancer screen, dose series, 48 h

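Briefly, cells in 96-well plates were exposed to five compound concentrations for 48 h, and endpoints were estimated by linear interpolation. GI50 marks 50% less growth. At the TGI there is no net growth.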

Regarding `CCOC(=O)C1CCn2c(nc3c2c(=O)n(C)c(=O)n3C)S1` (centres undefined), the TGI in the test on A549 NSCLC, in the test with HL-60(TB) leukemia, in the test with SF-295 CNS, with SK-MEL-5 melanoma and in the test with SN12C renal was above 100 µM in each case.
For the compound `CCC(C)C1NC(=O)C2CCCN2C(=O)C(CC2CO2)OC(=O)CCNC(=O)C(C)N(C)C(=O)C(C(C)C)N(C)C1=O` (centres undefined), the TGI in the test with A549 NSCLC was above 33.6 µM; in the test on COLO 205 colon it was 47.3 µM; in the test on KM12 colon, above 100 µM; in the test with MDA-MB-231 breast, above 100 µM; in the test on MDA-MB-435, above 100 µM; with SK-MEL-5 melanoma, below 0.0276 µM. For the same compound, in the test with SN12C renal, the TGI was above 100 µM.
Regarding `CC1(C)CCC2(C(=O)OC3OC(CO)C(O)C(O)C3O)CCC3(C)C(=CCC4C5(C)CCC(OC6OC(CO)C(O)C(O)C6O)C(C)(C)C5CCC43C)C2C1` (centres undefined), the TGI is above 25 µM with A549 NSCLC; above 25 µM in the test with COLO 205 colon; 16.4 µM in the test on HL-60(TB) leukemia; 19 µM in the test on KM12 colon; above 25 µM in the test on MDA-MB-231 breast; above 25 µM in the test with MDA-MB-435. In addition, the TGI with SF-295 CNS, in the test on SK-MEL-5 melanoma and in the test on SN12C renal was above 25 µM each time.
For `CC(=O)OC1CC(O)CC2=CCC3C4CCC(C(C)(O)C(O)CC5COC(=O)C5C)C4(C)CCC3C21C` (centres undefined), the TGI in the test with A549 NSCLC was above 25 µM; in the test with COLO 205 colon, above 25 µM; with HL-60(TB) leukemia it was 12.8 µM; with KM12 colon, above 25 µM; in the test on MDA-MB-231 breast, above 25 µM; with MDA-MB-435, above 25 µM. The TGI in the test with MDA-N, with SF-295 CNS, in the test on SK-MEL-5 melanoma and with SN12C renal was above 25 µM throughout.
`O=C1c2cc3c(cc2-c2c1c1ccc(Cl)cc1c(=O)n2C[C@H](O)[C@@H](O)[C@H](O)CO)OCO3`: the GI50 was 0.112 µM with A549 NSCLC; 0.08 µM with COLO 205 colon; 0.138 µM with KM12 colon; 0.333 µM in the test with MDA-MB-231 breast; 0.0253 µM in the test on SK-MEL-5 melanoma; 0.0473 µM with SN12C renal. The TGI in the test on A549 NSCLC was 0.476 µM; in the test with COLO 205 colon, 0.895 µM; in the test with KM12 colon, above 100 µM; in the test on MDA-MB-231 breast, 3.76 µM; with SK-MEL-5 melanoma it was 0.0701 µM; with SN12C renal it was above 100 µM.
Turning to `CCOC(=O)/C(=C\NCC(OCC)OCC)c1nc2ccccc2[nH]1`, the TGI in the test on A549 NSCLC is above 100 µM; in the test on COLO 205 colon, 39.6 µM; in the test on HL-60(TB) leukemia, 52.3 µM; in the test on KM12 colon it was above 100 µM; with MDA-MB-435, 73.3 µM; in the test on MDA-N, 85.2 µM. The TGI in the test on SF-295 CNS was above 100 µM; with SK-MEL-5 melanoma, 28.5 µM; in the test with SN12C renal, above 100 µM.
As to `COC(=O)C1C(O)CCC2CN3CCc4c([nH]c5cccc(OC)c45)C3CC21` (centres undefined), the TGI in the test on A549 NSCLC, in the test with COLO 205 colon, in the test with HL-60(TB) leukemia, in the test with KM12 colon, in the test on MDA-MB-231 breast and in the test with MDA-MB-435 was above 100 µM each time. The TGI in the test with MDA-N, with SF-295 CNS and with SN12C renal was above 100 µM throughout.
Regarding `O=S(=O)(/N=C(\NO)Nc1ccc(Cl)cc1)c1ccc(S(=O)(=O)c2ccccc2)s1`, the TGI was above 100 µM in the test on A549 NSCLC; 34.6 µM with COLO 205 colon; 50.6 µM in the test on HL-60(TB) leukemia; 60.4 µM in the test with KM12 colon; 86.2 µM in the test with MDA-MB-231 breast; 37.3 µM with MDA-MB-435. The TGI is above 100 µM in the test on SF-295 CNS, 24.5 µM in the test on SK-MEL-5 melanoma and 39.9 µM with SN12C renal.
For `Cc1cc(O)c(C(C)C)cc1CN1CCCCC1`, the TGI in the test with A549 NSCLC, in the test on COLO 205 colon, in the test with HL-60(TB) leukemia, with KM12 colon, with MDA-MB-231 breast and in the test with MDA-MB-435 was above 100 µM each time. Besides, the TGI in the test on MDA-N, in the test with SF-295 CNS, with SK-MEL-5 melanoma and in the test on SN12C renal was above 100 µM throughout.
For `C/C(=N\NC(=O)c1cccnc1)c1cccc(/C(C)=N/NC(=O)c2cccnc2)n1`, the TGI in the test with A549 NSCLC was 34.7 µM; in the test on COLO 205 colon it was above 100 µM; in the test with HL-60(TB) leukemia it was above 100 µM; with KM12 colon, above 100 µM; in the test on SF-295 CNS it was 20.5 µM; in the test on SK-MEL-5 melanoma, 7.12 µM. The compound further showed a TGI in the test on SN12C renal above 100 µM. Also, the figures for the GI50 in the test with COLO 205 colon, in the test on HL-60(TB) leukemia and in the test with SK-MEL-5 melanoma were 4.15 µM, 1.67 µM and 2.05 µM, respectively.
Consider `O=S(=O)(O)c1cccc2c(N=Nc3c(O)ccc4ccccc34)cccc12`, for which the TGI in the test on A549 NSCLC, with COLO 205 colon, in the test on KM12 colon, with MDA-MB-231 breast, in the test on MDA-MB-435 and with MDA-N was above 100 µM in each case. Moreover, the TGI in the test on SF-295 CNS, in the test with SK-MEL-5 melanoma and in the test with SN12C renal was above 100 µM in each case.
`CS(=O)(=O)c1nc(-c2cc3c(c(S(C)(=O)=O)n2)CCCC3)cc2c1CCCC2`: the TGI in the test with A549 NSCLC, with COLO 205 colon, in the test on HL-60(TB) leukemia, in the test with KM12 colon, in the test with MDA-MB-231 breast and with MDA-MB-435 was above 100 µM throughout. The TGI in the test on MDA-N was above 100 µM; in the test on SF-295 CNS it was above 93.9 µM; in the test on SK-MEL-5 melanoma, above 100 µM; with SN12C renal, above 100 µM.
Turning to `O=[N+]([O-])c1ccc2c(c1)c(N=NC(=S)NC1CCCCC1)c(O)n2CN1CCOCC1`, the TGI came to 15.7 µM in the test with A549 NSCLC; 23.4 µM in the test with COLO 205 colon; 17.2 µM with HL-60(TB) leukemia; 18 µM in the test on KM12 colon; 31.8 µM in the test with MDA-MB-231 breast; 20 µM with MDA-MB-435. Further, the TGI with MDA-N turned out to be 20 µM; in the test on SF-295 CNS, 16.6 µM; in the test with SK-MEL-5 melanoma, 11.3 µM; with SN12C renal, 19.7 µM.
Consider `N[C@H]1CCN(c2c(F)cc3c(=O)c(C(=O)O)cn4c3c2Oc2cc3c(ccc5ccccc53)cc2-4)C1`, for which the TGI with A549 NSCLC was above 100 µM; in the test on COLO 205 colon it was 9.28 µM; in the test on HL-60(TB) leukemia it was above 100 µM; in the test with KM12 colon, above 100 µM; in the test on MDA-MB-231 breast it was 0.864 µM; in the test on MDA-MB-435 it was above 100 µM. The TGI in the test on MDA-N was above 100 µM; with SF-295 CNS, above 100 µM; in the test on SK-MEL-5 melanoma it was 4.3 µM; with SN12C renal it was above 100 µM.

The values above are taken from PubChem BioAssay (NCI).
